Source: US10077293B2, “Antimicrobial peptide analogues derived from abalone (Haliotis discus) and antimicrobial pharmaceutical composition containing the same” (priority 2016, dated 2018)
Entries after “also recorded” stand apart in the source; their conditions may differ. Ends that are not written are not given here.

Key:
[1] = tested on: C. albicans; conditions: parent peptide, background statement; cited from earlier work
[2] = tested on: Gram positive and Gram negative bacteria; conditions: background statement; cited from earlier work
[3] = tested on: human red blood cells; format: cell-based
Description: Hemolytic activity was measured using human red blood cells. After adding to human blood an equal amount of phosphate buffered saline (PBS, 50 mM sodium phosphate, 150 mM NaCl, pH 7.4), mixing and centrifuging at 8000×g and 4° C. for 1 minute, the supernatant was removed and the remaining red blood cells were washed 3 times. The red blood cells were added to PBS to a concentration of 3% hematocrit. In order to measure the hemolytic activity, 90 μL of the 3% hematocrit was introduced to an e-tube and then 10 μL of each analogue solution (×10) was added. After incubation of each e-tube at 37° C. for 1 hour, centrifugation was performed at 13,000×g and 4° C. for 10 minutes. After taking 70 μL from each supernatant and transferring to a 96-well microtiter plate, release of hemoglobin was measured at 405 nm. Triton X-100 (0.1%) was used as a control group for 100% lysis of red blood cells and the hemolytic activity was calculated according to the following equation. % Hemolysis=[(Abs 405 nm in the peptide solution−Abs 405 nm in buffer)/(Abs 405 nm in 0.1% Triton X-100−Abs 405 nm in buffer)]×100

[4] = tested on: E. coli ML35p; experiment: Chromogenic bacteriolytic plate assay; format: cell-based; conditions: E. coli ML35p (FIG. 6)
Description: In order to investigate the lytic activity of the analogues for bacterial membrane, chromogenic bacteriolytic plate assay was conducted using E. coli ML35p containing a chromosomal IPTG-inducible β-galactosidase gene (Mardones, G., Venegas, A. Chromogenic plate assay distinguishing bacteriolytic from bacteriostatic activity of an antibiotic agent. J Microbiol Methods. 2000, 40(3), 199-206). After inoculating 2 mL of E. coli ML35p to TSB and culturing at 37° C. for 16-18 hours, a mixture of 50 μL of the cultured microorganism solution, 10 μL of 1 mM IPTG and 50 μL of 50 mg/mL X-gal was poured onto TSB containing 0.8% agarose at 42° C. the next day. After boring a well on the solidified plate, 5 μL of each peptide analogue solution was introduced and incubation was conducted for 3 hours. Then, after pouring 2×TSB containing 10 mL of 1.5% agarose to the plate and solidifying, incubation was conducted again for 16-18 hours. After the incubation, the size (diameter) of a clearing zone and the presence or absence of a blue line at the edge portion were investigated.

[5] = tested on: E. coli ML35p; experiment: Killing kinetics study; format: cell-based
Description: For killing kinetics study of the analogues whose bactericidal process was identified, killing rate for each analogue was investigated at 1×MIC and 5×MIC for 60 minutes. For this, the analogue was added to an e-tube containing 10^6 CFU/mL of E. coli ML35p. While incubating at 37° C., 10 μL of the solution was taken from the tube at predetermined times (5, 10, 20, 30, 40, 50 and 60 minutes after the addition of the analogue) and plated on a TSA plate. Then, the number of formed colonies was counted. As control groups, no analogue or piscidin 1 was added. The killing % for the analogues was represented as the number of formed colonies relative to that when no analogue was added.

[6] = tested on: E. coli ML35p; experiment: Ultrasensitive radial diffusion assay (URDA), antimicrobial activity; format: cell-based; conditions: Gram −
Description: (§1) Four species of Gram positive bacteria (Bacillus subtilis, Staphylococcus epidermidis, […] and Propionibacterium acnes), five species of Gram negative bacteria (E. coli D31, E. coli ML35p, Shigella flexneri, Pseudomonas aeruginosa and Vibrio parahaemolyticus) and one yeast species (Candida albicans) were used for experiments. The antimicrobial activity was measured by ultrasensitive radial diffusion assay (URDA) using two layers of media of different concentrations. First, the microorganisms were pre-cultured in each medium for 18 hours and the concentration of the microorganisms was adjusted to 84% T (≈1×10^8 CFU/mL) using a colorimeter (Product No. 52-1210, BioMerieux, Inc., USA). Then, 0.5 mL of the diluted microorganism solution was added to an underlay gel containing 9.5 mL of 0.03% TSB, 1% type I agarose and 10 mM phosphate buffer (PB; pH 6.5) and plated and solidified on a plate after mixing well. After boring a well with a diameter of 2.5 mm on the solidified plate using a punch, 5 μL of each analogue solution was introduced. All the analogues were dissolved in 5 μL of 0.01% acetic acid to avoid any effect of solvent. After the analogue permeated into the medium, the microorganisms were cultured for 3 hours and an overlay gel containing 10 mL of 6% TSB, 1% type I agarose and 10 mM phosphate buffer (pH 6.5) was poured and solidified. Then, the microorganisms were cultured again for 18 hours at the same temperature. Next day, the antimicrobial activity was determined by measuring the size (diameter) of a clear zone formed around the well. Piscidin 1, an antimicrobial peptide derived from the mast cells of a hybrid striped bass, was used as a control.

[7] = tested on: Vibrio parahaemolyticus KCCM42264; experiment: as above; format: cell-based
Description: as §1

[8] = tested on: E. coli D31; experiment: as above; format: cell-based; conditions: E. coli D31, Gram −
Description: as §1

[9] = tested on: Shigella flexneri KCTC2009; experiment: as above; format: cell-based; conditions: Shigella flexneri KCTC2009, Gram −
Description: as §1

[10] = tested on: B. subtilis KCTC1021; experiment: as above; format: cell-based, Bacillus subtilis; conditions: B. subtilis KCTC1021, Gram +
Description: as §1

[11] = tested on: C. albicans; experiment: as above; format: cell-based, Candida albicans
Description: as §1

[12] = tested on: S. mutans KCCM40105; experiment: as above; format: cell-based, Streptococcus mutans; conditions: S. mutans KCCM40105, Gram +
Description: as §1

[13] = tested on: P. aeruginosa KCTC2004; experiment: as above; format: cell-based, Pseudomonas aeruginosa; conditions: P. aeruginosa KCTC2004, Gram −
Description: as §1

[14] = tested on: Propionibacterium acnes KCTC11946; experiment: as above; format: cell-based; conditions: Propionibacterium acnes KCTC11946, Gram +
Description: as §1

[15] = tested on: S. epidermidis KCTC1917; experiment: as above; format: cell-based, Staphylococcus epidermidis; conditions: S. epidermidis KCTC1917, Gram +
Description: as §1

[16] = C. albicans KCCM42264 (as printed in Table 2), yeast

Compound | hemolytic activity (in words, FIG. 4) [3] | bacteriolytic activity: blue line at the edge portion of the clearing zone [4] | Minimal effective concentration [6] | Minimal effective concentration [7] | Minimal effective concentration [8] | Minimal effective concentration [9] | Minimal effective concentration [10] | Minimal effective concentration [11, 16] | Minimal effective concentration [12] | Minimal effective concentration [13] | other results
hdMolluscidin (AATKPKKAGAEAAPKKPAKKQTKKKPAKKAGGKKKPKRAGAKKAKK; listed as Haliotis discus) [antimicrobial peptide consisting of 46 amino acids, purified from the gill of abalone (Haliotis discus); parent peptide] |  |  |  |  |  |  |  |  |  |  | antimicrobial activity against C. albicans (in words) [1]: little antimicrobial activity; also recorded: no activity; antimicrobial activity against Gram positive and Gram negative bacteria (in words) [2]: strong antimicrobial activity
KWLLKLLKKL [SEQ ID NO 10, KWLLKLLKKL] | good hemolytic activity |  |  |  |  |  |  |  |  |  | 
[H]/N=C(/N)N[C@H]1[C@H](O)[C@@H](O)[C@H](O[C@@H]2O[C@@H](C)[C@](O)(C=O)[C@H]2O[C@@H]2O[C@@H](CO)[C@H](O)[C@@H](O)[C@@H]2NC)[C@@H](N/C(N)=N\[H])[C@@H]1O [streptomycin] |  | showed a blue line at the edge portion |  |  |  |  |  |  |  |  | 
LLWKLLKKL [SEQ ID NO 4, LLWKLLKKL] | good hemolytic activity |  |  |  |  |  |  |  |  |  | 
FFHHIFRGIVHVGKTIHRLVTG-NH2 [Piscidin 1, reference compound] |  | showed an edge line | 2.3 µg/mL | 3.0 µg/mL | 3.8 µg/mL | 8.0 µg/mL | 7.5 µg/mL | >62.5 µg/mL | 3.2 µg/mL | 8.0 µg/mL | time to kill E. coli ML35p ([5]; 1×MIC): ≤ 20 min; time to kill E. coli ML35p ([5]; 5×MIC): ≤ 5 min; Minimal effective concentration ([11]; C. albicans KCTC7965, yeast): >62.5 µg/mL
LLWKLLKKLLK-NH2 [SEQ ID NO 3, LLWKLLKKLLK] |  |  | 13.8 µg/mL | 9.1 µg/mL | 19.4 µg/mL | 10.0 µg/mL | 14.0 µg/mL | 15.0 µg/mL | 15.8 µg/mL | 15.2 µg/mL | Minimal effective concentration [14]: 14.5 µg/mL; Minimal effective concentration [15]: 17.2 µg/mL
